Key:
velvetleaf [1] = test: Test Example 5: herbicidal effect by foliage application, plastic box (Table 20, symbol M); format: in vivo, velvetleaf (Abutilon theophrasti); conditions: foliage application, 320 g/ha, evaluated three weeks after application
Outline: (§1)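 Plants were sown into sterilized diluvial soil under about 1.5 cm cover and kept in a greenhouse at 25° C. to 30° C. Fourteen days on, foliage received an even spray of the diluted emulsion. Herbicidal or crop effect was judged three weeks afterwards.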

lambsquarters [2] = test: Test Example 4: herbicidal effect by soil treatment (Table 19, symbol O); format: in vivo, lambsquarters (Chenopodium album); conditions: amount of applied herbicide 320 g/ha
Outline: (§2)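 In this soil treatment, the formulated compound reached the seeds only through the soil: seeds were buried about 1.5 cm deep in sterilized diluvial soil, then the diluted emulsion was sprayed over the surface. After three weeks at 25° C. to 30° C. in a greenhouse, effects were graded on criteria from an earlier test.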

Chinese sprangletop = test: Test Example 3: herbicidal effect by foliage application, Wagner pot (Table 18, symbol D); format: in vivo, chinese sprangletop (Leptochloa chinensis); conditions: amount of applied herbicide 320 g/ha
Outline: (§3)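 Plants were sown in alluvial soil held under 0.1–0.5 cm standing water and grown 14 days in a greenhouse at 25–30 °C. An emulsifiable formulation, water-diluted to the set dose, was then sprayed onto the foliage, and effects were scored three weeks later using previously defined criteria.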

green foxtail [3] = test: Test Example 4: herbicidal effect by soil treatment (Table 19, symbol G); format: in vivo, green foxtail (Setaria viridis); conditions: amount of applied herbicide 320 g/ha
Outline: as §2

rice flat sedge = test: Test Example 3: herbicidal effect by foliage application, Wagner pot (Table 18, symbol E); format: in vivo, rice flat sedge (Cyperus iria); conditions: amount of applied herbicide 320 g/ha
Outline: as §3

green foxtail [4] = test: Test Example 5: herbicidal effect by foliage application, plastic box (Table 20, symbol G); format: in vivo, green foxtail (Setaria viridis); conditions: foliage application, 320 g/ha, evaluated three weeks after application
Outline: as §1

redroot pigweed [5] = test: Test Example 5: herbicidal effect by foliage application, plastic box (Table 20, symbol N); format: in vivo, redroot pigweed (Amaranthus retroflexus); conditions: foliage application, 320 g/ha, evaluated three weeks after application
Outline: as §1

blackgrass [6] = test: Test Example 5: herbicidal effect by foliage application, plastic box (Table 20, symbol J); format: in vivo, blackgrass (Alopecurus myosuroides); conditions: foliage application, 320 g/ha, evaluated three weeks after application
Outline: as §1

blackgrass [7] = test: Test Example 4: herbicidal effect by soil treatment (Table 19, symbol J); format: in vivo, blackgrass (Alopecurus myosuroides); conditions: amount of applied herbicide 320 g/ha
Outline: as §2

southern crabgrass [8] = test: Test Example 5: herbicidal effect by foliage application, plastic box (Table 20, symbol F); format: in vivo, southern crabgrass (Digitaria ciliaris); conditions: foliage application, 320 g/ha, evaluated three weeks after application
Outline: as §1

chickweed [9] = test: Test Example 5: herbicidal effect by foliage application, plastic box (Table 20, symbol P); format: in vivo, common chickweed (Stellaria media); conditions: foliage application, 320 g/ha, evaluated three weeks after application
Outline: as §1

wild oat [10] = test: Test Example 4: herbicidal effect by soil treatment (Table 19, symbol I); format: in vivo, wild oat (Avena fatua); conditions: amount of applied herbicide 320 g/ha
Outline: as §2

southern crabgrass [11] = test: Test Example 4: herbicidal effect by soil treatment (Table 19, symbol F); format: in vivo, southern crabgrass (Digitaria ciliaris); conditions: amount of applied herbicide 320 g/ha
Outline: as §2

chickweed [12] = test: Test Example 4: herbicidal effect by soil treatment (Table 19, symbol P); format: in vivo, common chickweed (Stellaria media); conditions: amount of applied herbicide 320 g/ha
Outline: as §2

oval-leafed pondweed = test: Test Example 1: herbicidal activity, application before weed generation under submerged conditions (Table 16, symbol C); format: in vivo, oval-leafed pondweed (Monochoria vaginalis); conditions: 320 g/ha applied herbicide
Outline: (§4)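 Submerged Wagner pots (alluvial soil, 4 cm water) sown with weed seeds and planted with 2.5-leaf rice seedlings; emulsifiable concentrate diluted in water applied to water surface on sowing day. Held in greenhouse at 25-30 °C; injury scored 0-5 by herbicidal rate after three weeks.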

persian speedwell [13] = test: Test Example 4: herbicidal effect by soil treatment (Table 19, symbol R); format: in vivo, Persian speedwell (Veronica persica); conditions: amount of applied herbicide 320 g/ha
Outline: as §2

windgrass [14] = test: Test Example 4: herbicidal effect by soil treatment (Table 19, symbol L); format: in vivo, windgrass (Apera spica-venti); conditions: amount of applied herbicide 320 g/ha
Outline: as §2

barnyard grass [15] = test: Test Example 3: herbicidal effect by foliage application, Wagner pot (Table 18, symbol H); format: in vivo, barnyard grass (Echinochloa crus-galli); conditions: amount of applied herbicide 320 g/ha
Outline: as §3

wild oat [16] = test: Test Example 5: herbicidal effect by foliage application, plastic box (Table 20, symbol I); format: in vivo, wild oat (Avena fatua); conditions: foliage application, 320 g/ha, evaluated three weeks after application
Outline: as §1

lambsquarters [17] = test: Test Example 5: herbicidal effect by foliage application, plastic box (Table 20, symbol O); format: in vivo, lambsquarters (Chenopodium album); conditions: foliage application, 320 g/ha, evaluated three weeks after application
Outline: as §1

velvetleaf [18] = test: Test Example 4: herbicidal effect by soil treatment (Table 19, symbol M); format: in vivo, velvetleaf (Abutilon theophrasti); conditions: amount of applied herbicide 320 g/ha
Outline: as §2

barnyard grass [19] = test: Test Example 4: herbicidal effect by soil treatment (Table 19, symbol H); format: in vivo, barnyard grass (Echinochloa crus-galli); conditions: amount of applied herbicide 320 g/ha
Outline: as §2

Japanese bulrush = test: Test Example 1: herbicidal activity, application before weed generation under submerged conditions (Table 16, symbol B); format: in vivo, Japanese bulrush (Schoenoplectus juncoides); conditions: 320 g/ha applied herbicide
Outline: as §4

Italian ryegrass [20] = test: Test Example 4: herbicidal effect by soil treatment (Table 19, symbol K); format: in vivo, Italian ryegrass (Lolium multiflorum); conditions: amount of applied herbicide 320 g/ha
Outline: as §2

barnyard grass [21] = test: Test Example 5: herbicidal effect by foliage application, plastic box (Table 20, symbol H); format: in vivo, barnyard grass (Echinochloa crus-galli); conditions: foliage application, 320 g/ha, evaluated three weeks after application
Outline: as §1

redroot pigweed [22] = test: Test Example 4: herbicidal effect by soil treatment (Table 19, symbol N); format: in vivo, redroot pigweed (Amaranthus retroflexus); conditions: amount of applied herbicide 320 g/ha
Outline: as §2

late watergrass = test: Test Example 1: herbicidal activity, application before weed generation under submerged conditions (Table 16, symbol A); format: in vivo, late watergrass (Echinochloa oryzicola); conditions: 320 g/ha applied herbicide
Outline: as §4

persian speedwell [23] = test: Test Example 5: herbicidal effect by foliage application, plastic box (Table 20, symbol R); format: in vivo, Persian speedwell (Veronica persica); conditions: foliage application, 320 g/ha, evaluated three weeks after application
Outline: as §1

Italian ryegrass [24] = test: Test Example 5: herbicidal effect by foliage application, plastic box (Table 20, symbol K); format: in vivo, Italian ryegrass (Lolium multiflorum); conditions: foliage application, 320 g/ha, evaluated three weeks after application
Outline: as §1

windgrass [25] = test: Test Example 5: herbicidal effect by foliage application, plastic box (Table 20, symbol L); format: in vivo, windgrass (Apera spica-venti); conditions: foliage application, 320 g/ha, evaluated three weeks after application
Outline: as §1

SMILES	herbicidal effect on M: velvetleaf (criteria 0-5) (velvetleaf [1])	herbicidal effect on O: lambsquarters (lambsquarters [2])	herbicidal effect on D: Chinese sprangletop (Chinese sprangletop)	herbicidal effect on G: green foxtail (green foxtail [3])	herbicidal effect on E: rice flat sedge (rice flat sedge)	herbicidal effect on G: green foxtail (criteria 0-5) (green foxtail [4])	herbicidal effect on N: redroot pigweed (criteria 0-5) (redroot pigweed [5])	herbicidal effect on J: blackgrass (criteria 0-5) (blackgrass [6])	herbicidal effect on J: blackgrass (blackgrass [7])	herbicidal effect on F: southern crabgrass (criteria 0-5) (southern crabgrass [8])	herbicidal effect on P: chickweed (criteria 0-5) (chickweed [9])	herbicidal effect on I: wild oat (wild oat [10])	herbicidal effect on F: southern crabgrass (southern crabgrass [11])	herbicidal effect on P: chickweed (chickweed [12])	Herbicidal effect on C: oval-leafed pondweed (grade 0-5) (oval-leafed pondweed)	herbicidal effect on R: persian speedwell (persian speedwell [13])	herbicidal effect on L: windgrass (windgrass [14])	herbicidal effect on H: barnyard grass (barnyard grass [15])	herbicidal effect on I: wild oat (criteria 0-5) (wild oat [16])	herbicidal effect on O: lambsquarters (criteria 0-5) (lambsquarters [17])	further results
CCCC(=O)Oc1c(C)nn(C)c(=O)c1-c1c(-c2ccccc2C(F)(F)F)sc2ccc(F)cc12 [2-230]	5 (Herbicidal rate of 90% or more (almost completely withered))	0 (Herbicidal rate of 5% or less (almost no effect))	5 (Herbicidal rate of 90% or more (almost completely withered))	0 (Herbicidal rate of 5% or less (almost no effect))	5 (Herbicidal rate of 90% or more (almost completely withered))	3 (Herbicidal rate of 40% or more and less than 70%)	5 (Herbicidal rate of 90% or more (almost completely withered))	0 (Herbicidal rate of 5% or less (almost no effect))	0 (Herbicidal rate of 5% or less (almost no effect))	0 (Herbicidal rate of 5% or less (almost no effect))	5 (Herbicidal rate of 90% or more (almost completely withered))	0 (Herbicidal rate of 5% or less (almost no effect))	0 (Herbicidal rate of 5% or less (almost no effect))	3 (Herbicidal rate of 40% or more and less than 70%)	0 (Herbicidal rate of 5% or less (almost no effect))	0 (Herbicidal rate of 5% or less (almost no effect))	0 (Herbicidal rate of 5% or less (almost no effect))	4 (Herbicidal rate of 70% or more and less than 90%)	0 (Herbicidal rate of 5% or less (almost no effect))	4 (Herbicidal rate of 70% or more and less than 90%)	herbicidal effect on M: velvetleaf (velvetleaf [18]): 0 (Herbicidal rate of 5% or less (almost no effect)); herbicidal effect on H: barnyard grass (barnyard grass [19]): 0 (Herbicidal rate of 5% or less (almost no effect)); Herbicidal effect on B: Japanese bulrush (grade 0-5) (Japanese bulrush): 0 (Herbicidal rate of 5% or less (almost no effect)); herbicidal effect on K: Italian ryegrass (Italian ryegrass [20]): 2 (Herbicidal rate of 20% or more and less than 40%); herbicidal effect on H: barnyard grass (criteria 0-5) (barnyard grass [21]): 2 (Herbicidal rate of 20% or more and less than 40%); herbicidal effect on N: redroot pigweed (redroot pigweed [22]): 0 (Herbicidal rate of 5% or less (almost no effect)); Herbicidal effect on A: late watergrass (grade 0-5) (late watergrass): 3 (Herbicidal rate of 40% or more and less than 70%); herbicidal effect on R: persian speedwell (criteria 0-5) (persian speedwell [23]): 5 (Herbicidal rate of 90% or more (almost completely withered)); herbicidal effect on K: Italian ryegrass (criteria 0-5) (Italian ryegrass [24]): 3 (Herbicidal rate of 40% or more and less than 70%); herbicidal effect on L: windgrass (criteria 0-5) (windgrass [25]): 3 (Herbicidal rate of 40% or more and less than 70%)
Cc1nn(C)c(=O)c(-c2c(-c3cccc(OC(F)(F)F)c3)sc3ccc(F)cc23)c1O [2-236]	1 (Herbicidal rate of 5% or more and less than 20%)	1 (Herbicidal rate of 5% or more and less than 20%)	3 (Herbicidal rate of 40% or more and less than 70%)	0 (Herbicidal rate of 5% or less (almost no effect))	5 (Herbicidal rate of 90% or more (almost completely withered))	3 (Herbicidal rate of 40% or more and less than 70%)	5 (Herbicidal rate of 90% or more (almost completely withered))	0 (Herbicidal rate of 5% or less (almost no effect))	0 (Herbicidal rate of 5% or less (almost no effect))	0 (Herbicidal rate of 5% or less (almost no effect))	5 (Herbicidal rate of 90% or more (almost completely withered))	0 (Herbicidal rate of 5% or less (almost no effect))	0 (Herbicidal rate of 5% or less (almost no effect))	0 (Herbicidal rate of 5% or less (almost no effect))	2 (Herbicidal rate of 20% or more and less than 40%)	0 (Herbicidal rate of 5% or less (almost no effect))	0 (Herbicidal rate of 5% or less (almost no effect))	4 (Herbicidal rate of 70% or more and less than 90%)	0 (Herbicidal rate of 5% or less (almost no effect))	2 (Herbicidal rate of 20% or more and less than 40%)	herbicidal effect on M: velvetleaf (velvetleaf [18]): 0 (Herbicidal rate of 5% or less (almost no effect)); herbicidal effect on H: barnyard grass (barnyard grass [19]): 0 (Herbicidal rate of 5% or less (almost no effect)); Herbicidal effect on B: Japanese bulrush (grade 0-5) (Japanese bulrush): 3 (Herbicidal rate of 40% or more and less than 70%); herbicidal effect on K: Italian ryegrass (Italian ryegrass [20]): 0 (Herbicidal rate of 5% or less (almost no effect)); herbicidal effect on H: barnyard grass (criteria 0-5) (barnyard grass [21]): 0 (Herbicidal rate of 5% or less (almost no effect)); herbicidal effect on N: redroot pigweed (redroot pigweed [22]): 2 (Herbicidal rate of 20% or more and less than 40%); Herbicidal effect on A: late watergrass (grade 0-5) (late watergrass): 3 (Herbicidal rate of 40% or more and less than 70%); herbicidal effect on R: persian speedwell (criteria 0-5) (persian speedwell [23]): 3 (Herbicidal rate of 40% or more and less than 70%); herbicidal effect on K: Italian ryegrass (criteria 0-5) (Italian ryegrass [24]): 0 (Herbicidal rate of 5% or less (almost no effect)); herbicidal effect on L: windgrass (criteria 0-5) (windgrass [25]): 1 (Herbicidal rate of 5% or more and less than 20%)
